From PubChem BioAssay (NCI)
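Briefly, cells in 96-well plates were exposed to five compound concentrations for 48 h, and endpoints were estimated by linear interpolation. GI50 marks 50% less growth. At the TGI there is no net growth.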

Tests used:
Test in all cases: NCI anticancer screen, dose series, 48 h
786-0 renal = system: 786-0 renal
A498 renal = system: A498 renal
A549 NSCLC = system: A549 NSCLC
ACHN renal = system: ACHN renal
BT-549 breast = system: BT-549 breast
CAKI-1 renal = system: CAKI-1 renal
COLO 205 colon = system: COLO 205 colon
DU-145 prostate = system: DU-145 prostate
EKVX NSCLC = system: EKVX NSCLC
HCC-2998 colon = system: HCC-2998 colon
HCT-116 colon = system: HCT-116 colon
HCT-15 colon = system: HCT-15 colon
HL-60(TB) leukemia = system: HL-60(TB) leukemia
HOP-62 NSCLC = system: HOP-62 NSCLC
HOP-92 NSCLC = system: HOP-92 NSCLC
HS 578T breast = system: HS 578T breast
IGROV1 ovarian = system: IGROV1 ovarian
K-562 leukemia = system: K-562 leukemia
KM12 colon = system: KM12 colon
LOX IMVI melanoma = system: LOX IMVI melanoma
M14 melanoma = system: M14 melanoma
MALME-3M melanoma = system: MALME-3M melanoma
MCF7 breast = system: MCF7 breast
MDA-MB-231 breast = system: MDA-MB-231 breast
MDA-MB-435 = system: MDA-MB-435
NCI-H226 lung = system: NCI-H226 lung
NCI-H23 lung = system: NCI-H23 lung
NCI-H460 lung = system: NCI-H460 lung
NCI-H522 lung = system: NCI-H522 lung
NCI/ADR-RES ovarian = system: NCI/ADR-RES ovarian
OVCAR-3 ovarian = system: OVCAR-3 ovarian
OVCAR-4 ovarian = system: OVCAR-4 ovarian
OVCAR-5 ovarian = system: OVCAR-5 ovarian
PC-3 prostate = system: PC-3 prostate
RXF 393 renal = system: RXF 393 renal
SF-268 CNS = system: SF-268 CNS
SF-295 CNS = system: SF-295 CNS
SF-539 CNS = system: SF-539 CNS
SK-MEL-2 melanoma = system: SK-MEL-2 melanoma
SK-MEL-28 melanoma = system: SK-MEL-28 melanoma
SK-MEL-5 melanoma = system: SK-MEL-5 melanoma
SK-OV-3 ovarian = system: SK-OV-3 ovarian
SN12C renal = system: SN12C renal
SNB-19 CNS = system: SNB-19 CNS
SNB-75 CNS = system: SNB-75 CNS
SR leukemia = system: SR leukemia
SW-620 colon = system: SW-620 colon
T-47D breast = system: T-47D breast
TK-10 renal = system: TK-10 renal
U251 CNS = system: U251 CNS
UACC-257 melanoma = system: UACC-257 melanoma
UACC-62 melanoma = system: UACC-62 melanoma
UO-31 renal = system: UO-31 renal

## CN1CCN(CCCOc2cccc3nc(Nc4ccc(Cl)c(C(F)(F)F)c4)ccc23)CC1
786-0 renal
  GI50: 1500 nM
  TGI: 2890 nM
A498 renal
  GI50: 1680 nM
  TGI: 3540 nM
A549 NSCLC
  GI50: 1720 nM
  TGI: 3660 nM
ACHN renal
  GI50: 1590 nM
  TGI: 3070 nM
BT-549 breast
  GI50: 1710 nM
  TGI: 3310 nM
CAKI-1 renal
  GI50: 1670 nM
  TGI: 3190 nM
COLO 205 colon
  GI50: 1720 nM
  TGI: 3350 nM
DU-145 prostate
  GI50: 1810 nM
  TGI: 3270 nM
EKVX NSCLC
  GI50: 1820 nM
  TGI: 3980 nM
HCC-2998 colon
  GI50: 1910 nM
  TGI: 3440 nM
HCT-116 colon
  GI50: 1500 nM
  TGI: 2840 nM
HCT-15 colon
  GI50: 1220 nM
  TGI: 2640 nM
HL-60(TB) leukemia
  GI50: 1870 nM
  TGI: 4030 nM
HOP-62 NSCLC
  GI50: 1700 nM
  TGI: 3320 nM
HOP-92 NSCLC
  GI50: 1020 nM
  TGI: 3690 nM
HS 578T breast
  GI50: 2000 nM
  TGI: 4660 nM
IGROV1 ovarian
  GI50: 1850 nM
  TGI: 3600 nM
K-562 leukemia
  GI50: 1620 nM
  TGI: 3340 nM
KM12 colon
  GI50: 1740 nM
  TGI: 3240 nM
LOX IMVI melanoma
  GI50: 1560 nM
  TGI: 3070 nM
M14 melanoma
  GI50: 1810 nM
  TGI: 3480 nM
MALME-3M melanoma
  GI50: 1750 nM
  TGI: 3450 nM
MCF7 breast
  GI50: 1410 nM
  TGI: 2990 nM
MDA-MB-231 breast
  GI50: 1470 nM
  TGI: 3100 nM
MDA-MB-435
  GI50: 1680 nM
  TGI: 3230 nM
NCI-H226 lung
  GI50: 2070 nM
  TGI: 4890 nM
NCI-H23 lung
  GI50: 1780 nM
  TGI: 3420 nM
NCI-H460 lung
  GI50: 1720 nM
  TGI: 3520 nM
NCI-H522 lung
  GI50: 1830 nM
  TGI: 3640 nM
NCI/ADR-RES ovarian
  GI50: 1730 nM
  TGI: 3370 nM
OVCAR-3 ovarian
  GI50: 1810 nM
  TGI: 3310 nM
OVCAR-4 ovarian
  GI50: 2730 nM
  TGI: 7450 nM
OVCAR-5 ovarian
  GI50: 1850 nM
  TGI: 3410 nM
PC-3 prostate
  GI50: 1570 nM
  TGI: 3030 nM
RXF 393 renal
  GI50: 1630 nM
  TGI: 3440 nM
SF-268 CNS
  GI50: 1850 nM
  TGI: 3660 nM
SF-295 CNS
  GI50: 1800 nM
  TGI: 3380 nM
SF-539 CNS
  GI50: 1580 nM
  TGI: 3020 nM
SK-MEL-2 melanoma
  GI50: 2060 nM
  TGI: 4490 nM
SK-MEL-28 melanoma
  GI50: 1390 nM
  TGI: 2810 nM
SK-MEL-5 melanoma
  GI50: 1690 nM
  TGI: 3130 nM
SK-OV-3 ovarian
  GI50: 1990 nM
  TGI: 4350 nM
SN12C renal
  GI50: 1600 nM
  TGI: 3380 nM
SNB-19 CNS
  GI50: 1640 nM
  TGI: 3140 nM
SNB-75 CNS
  GI50: 1520 nM
  TGI: 3780 nM
SR leukemia
  GI50: 540 nM
  TGI: 3400 nM
SW-620 colon
  GI50: 1890 nM
  TGI: 3830 nM
T-47D breast
  GI50: 1970 nM
  TGI: 4520 nM
TK-10 renal
  GI50: 1800 nM
  TGI: 3440 nM
U251 CNS
  GI50: 1490 nM
  TGI: 3230 nM
UACC-257 melanoma
  GI50: 1720 nM
  TGI: 3500 nM
UACC-62 melanoma
  GI50: 1720 nM
  TGI: 3270 nM
UO-31 renal
  GI50: 1460 nM
  TGI: 2880 nM
